The record followed here is US20110105397A1, “METHOD FOR TREATING HEART FAILURE WITH STRESSCOPIN-LIKE PEPTIDES” (priority 2009, published 2011).

Where a SMILES comes first, the peptide text is derived from it. Where no end group is shown, it is not given here. The star is where a group is joined. Succinimide(1-Et,3-yl) = CCN1C(=O)CC(*)C1=O Where only a bound is given, the exact number is not on record here.

The target of the test is T1, human CRHR2 (Homo sapiens, UniProt Q13324).
T1 construct: expressed in transfected cells
T1 sequence (Q13324 1-411): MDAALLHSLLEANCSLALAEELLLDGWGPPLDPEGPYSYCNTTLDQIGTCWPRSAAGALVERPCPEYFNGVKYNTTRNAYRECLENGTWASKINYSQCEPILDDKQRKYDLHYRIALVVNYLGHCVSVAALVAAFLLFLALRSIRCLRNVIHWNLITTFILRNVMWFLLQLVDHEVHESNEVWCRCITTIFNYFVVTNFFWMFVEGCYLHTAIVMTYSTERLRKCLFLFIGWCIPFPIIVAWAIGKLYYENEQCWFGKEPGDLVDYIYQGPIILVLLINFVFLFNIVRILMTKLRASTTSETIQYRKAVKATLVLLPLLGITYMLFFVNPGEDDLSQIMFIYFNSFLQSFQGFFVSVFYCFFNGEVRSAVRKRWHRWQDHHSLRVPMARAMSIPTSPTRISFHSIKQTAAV
In words: cAMP assay, h-CRHR2 transfected SK-N-MC cells. In kind it is cell-based. The note with it: Table 13; for EC50: cysteine mutation, N-ethylmaleimide capping, pegylation, read-out: pA50 (converted); for Log DR [M]: h-SCP control pA50 minus test compound pA50 within the same assay batch. The method, then: The concentration required for 50% maximum effect (A50) was 0.4 nM.
Human CRHR1 (accession number X72304) or CRHR2 (accession number U34587) were cloned into pcDNA3.1/Zeo expression vector and stably transfected into SK—N-MC cells by electroporation. Cells were maintained in MEM w/Earl's Salt with 10% FBS, 50 I.U. penicillin, 50 μg/ml streptomycin, 2 mM L-glutamine, 1 mM sodium pyruvate and 0.1 mM non-essential amino acids, 600 μg/ml G418. Cells were grown at 37° C. in 5% CO2
Cells were plated in 96-well tissue culture dishes (Biocoat from BD Biosciences) overnight at 50,000 cell/well. Cells were washed with PBS then resuspended in DMEM F-12 without phenol red, containing 10 μM isobutylmethylxanthine (IBMX). Cells were incubated with the peptides at concentrations ranging from 1 pM to 10 μM for 60 min at 37° Celsius. […] Forskolin (10 μM), a direct stimulant of adenylate cyclase, was used as positive control. The assays were stopped by the addition of 0.5 M HCl and mixing by orbital rotation for 2 h at 4° Celsius.
To assess the activity of the inventive polypeptide at the CRHR2, an intracellular cAMP measurement test using a Flash plate radioactive assay (Catalog No. Cus56088; Perkin Elmer, Mass., U.S.A.) was employed.
Transfected SK—N-MC cells were plated in 96-well Biocoat tissue culture dishes (BD Biosciences, San Jose, Calif., U.S.A) overnight at 50,000 cell/well. Cells were first washed with PBS and then suspended with DMEM/F-12 without phenol red, containing […]. Suspended cells were transferred into a 96-well flash plate coated with scintillant fluid. Cells were incubated with peptides ranging from 1 pM to 1 μM, for 60 min, at 37° Celsius. Forskolin at 10 μM was used as positive control. After ligand stimulation, cells were lysed by the addition of 0.5M HCl and mixed by orbital rotation for 2 h at 4° Celsius in order to release intracellular cAMP into the media.
Media containing released intracellular cAMP was transferred to a 96-well flash plate coated with scintillant fluid containing an anti-cAMP antibody. In this assay, intracellular cAMP competes with ^125I-labeled cAMP binding to the antibody. To generate a standard curve, cAMP ranging from 2.5 to 250 pmoles/ml was included in the experiment. [^125I]-cAMP was measured on a TopCount scintillation counter (Perkin Elmer, Mass., U.S.A).
Individual agonist concentration-response curve data were fitted to the Hill equation, see formula below, using GraphPad Prism (Graphpad Software, La Jolla, Calif., U.S.A.), to provide estimates of agonist concentration needed to generate one-half maximal response (A50), and the maximal asymptote (α) and Hill slope (nH) parameters. In this equation, [A] is the agonist concentration and E is the measured effect:
For display purposes the mean fitted parameter estimates were used to generate a single E/[A] curve shown superimposed on the mean experimental data. Potency estimates for agonists, pA50, are expressed as the negative logarithm of the midpoint of each curve and listed with their standard error of measurement (SEM). Logarithm base 10 of the agonist dose ratio (Log DR) values were calculated by subtraction of the test compound pA50 value from the corresponding h-SCP (SEQ ID NO:1) control pA50 value within the same assay batch. The SEM values of the Log DR values are given by the square root of the sum of the squared SEM values of the h-SCP (SEQ ID NO:1) control and test compound pA50 values.
Human and rat peptides (see Table 10) were used on the stimulation of h-CRHR1 or h-CRHR2 transfected SK—N-MC cells in the cAMP flash plate assay. Peptides were incubated for 1 hr at 37° Celsius. Curves were calculated using non-linear regression sigmoidal concentration-response analysis calculation in GraphPad Prism. The so obtained pA50 values are shown in Table 11 in addition to literature values. […]
A general note: Cyclic AMP is a second messenger, typically raised through Gs and lowered through Gi signalling.

Consider `CC[C@H](C)[C@H](NC(=O)[C@H](CCC(N)=O)NC(=O)[C@H](C)NC(=O)[C@H](CCSC)NC(=O)[C@H](CC(C)C)NC(=O)[C@H](CSC1CC(=O)N(CC)C1=O)NC(=O)[C@H](C)NC(=O)[C@H](CC(N)=O)NC(=O)[C@H](C)NC(=O)[C@H](C)NC(=O)[C@H](C)NC(=O)[C@H](CCC(N)=O)NC(=O)[C@H](C)NC(=O)[C@H](CCCNC(=N)N)NC(=O)[C@H](CC(C)C)NC(=O)[C@H](CC(N)=O)NC(=O)[C@H](CCCCN)NC(=O)[C@H](C)NC(=O)[C@H](CCCCN)NC(=O)[C@H](C)NC(=O)[C@@H](NC(=O)[C@H](CC(N)=O)NC(=O)[C@H](Cc1ccccc1)NC(=O)[C@H](CC(C)C)NC(=O)[C@H](CC(C)C)NC(=O)[C@H](CC(N)=O)NC(=O)[C@H](CCSC)NC(=O)[C@@H](NC(=O)[C@H](CC(N)=O)NC(=O)[C@@H](NC(=O)[C@@H]1CCCN1C(=O)[C@@H](NC(=O)[C@H](CC(=O)O)NC(=O)[C@H](CC(C)C)NC(=O)[C@H](CO)NC(=O)[C@H](CC(C)C)NC(=O)[C@@H](NC(=O)[C@H](Cc1ccccc1)NC(=O)[C@H](CCCCN)NC(=O)[C@@H](N)[C@@H](C)O)[C@@H](C)O)C(C)C)[C@@H](C)O)[C@@H](C)CC)[C@@H](C)CC)C(N)=O` (some centres unmarked) [SEQ ID NO: 43, TKFTLSLDVPTNIMNLLFNIAKAKNLRAQAAANAC(-NES) LMAQI-NH2] (H-TKFTLSLDVPTNIMNLLFNIAKAKNLRAQAAANAC(Succinimide(1-Et,3-yl))LMAQI-NH2), for which the EC50 is 0.162 nM and the “Log DR [M]” value was −0.32.

Regarding `CC[C@H](C)[C@H](NC(=O)[C@H](CCC(N)=O)NC(=O)[C@H](C)NC(=O)[C@H](CCSC)NC(=O)[C@H](CC(C)C)NC(=O)[C@H](Cc1c[nH]cn1)NC(=O)[C@H](C)NC(=O)[C@H](CC(N)=O)NC(=O)[C@H](C)NC(=O)[C@H](C)NC(=O)[C@H](C)NC(=O)[C@H](CCC(N)=O)NC(=O)[C@H](C)NC(=O)[C@H](CCCNC(=N)N)NC(=O)[C@H](CC(C)C)NC(=O)[C@H](CC(N)=O)NC(=O)[C@H](CCCCN)NC(=O)[C@H](C)NC(=O)[C@H](CCCCN)NC(=O)[C@H](C)NC(=O)[C@@H](NC(=O)[C@H](CC(N)=O)NC(=O)[C@H](Cc1ccccc1)NC(=O)[C@H](CC(C)C)NC(=O)[C@H](CSC1CC(=O)N(CC)C1=O)NC(=O)[C@H](CC(N)=O)NC(=O)[C@H](CCSC)NC(=O)[C@@H](NC(=O)[C@H](CC(N)=O)NC(=O)[C@@H](NC(=O)[C@@H]1CCCN1C(=O)[C@@H](NC(=O)[C@H](CC(=O)O)NC(=O)[C@H](CC(C)C)NC(=O)[C@H](CO)NC(=O)[C@H](CC(C)C)NC(=O)[C@@H](NC(=O)[C@H](Cc1ccccc1)NC(=O)[C@H](CCCCN)NC(=O)[C@@H](N)[C@@H](C)O)[C@@H](C)O)C(C)C)[C@@H](C)O)[C@@H](C)CC)[C@@H](C)CC)C(N)=O` (some centres unmarked) [SEQ ID NO: 54, TKFTL SLDVP TNIMN C(-NES)LFNI AKAKN LRAQA AANAH LMAQI-NH2] (H-TKFTLSLDVPTNIMNC(Succinimide(1-Et,3-yl))LFNIAKAKNLRAQAAANAHLMAQI-NH2; N-terminus assumed), the EC50 was 0.282 nM and the “Log DR [M]” value is given as −0.08.

Regarding `CC[C@H](C)[C@H](NC(=O)[C@H](CCC(N)=O)NC(=O)[C@H](C)NC(=O)[C@H](CCSC)NC(=O)[C@H](CC(C)C)NC(=O)[C@H](Cc1c[nH]cn1)NC(=O)[C@H](C)NC(=O)[C@H](CC(N)=O)NC(=O)[C@H](C)NC(=O)[C@H](C)NC(=O)[C@H](C)NC(=O)[C@H](CCC(N)=O)NC(=O)[C@H](C)NC(=O)[C@H](CCCNC(=N)N)NC(=O)[C@H](CC(C)C)NC(=O)[C@H](CC(N)=O)NC(=O)[C@H](CCCCN)NC(=O)[C@H](C)NC(=O)[C@H](CCCCN)NC(=O)[C@H](C)NC(=O)[C@@H](NC(=O)[C@H](CSC1CC(=O)N(CC)C1=O)NC(=O)[C@H](Cc1ccccc1)NC(=O)[C@H](CC(C)C)NC(=O)[C@H](CC(C)C)NC(=O)[C@H](CC(N)=O)NC(=O)[C@H](CCSC)NC(=O)[C@@H](NC(=O)[C@H](CC(N)=O)NC(=O)[C@@H](NC(=O)[C@@H]1CCCN1C(=O)[C@@H](NC(=O)[C@H](CC(=O)O)NC(=O)[C@H](CC(C)C)NC(=O)[C@H](CO)NC(=O)[C@H](CC(C)C)NC(=O)[C@@H](NC(=O)[C@H](Cc1ccccc1)NC(=O)[C@H](CCCCN)NC(=O)[C@@H](N)[C@@H](C)O)[C@@H](C)O)C(C)C)[C@@H](C)O)[C@@H](C)CC)[C@@H](C)CC)C(N)=O` (some centres unmarked) [SEQ ID NO: 52, TKFTL SLDVP TNIMN LLFC(-NES)I AKAKN LRAQA AANAH LMAQI-NH2] (H-TKFTLSLDVPTNIMNLLFC(Succinimide(1-Et,3-yl))IAKAKNLRAQAAANAHLMAQI-NH2; N-terminus assumed), the EC50 was 0.38 nM and the “Log DR [M]” value worked out at 0.05.

For “TKFTLSLDVPTNIMNLLFNIAKAKNLRAQAAANAHLCAQI-NH2 [SEQ ID NO: 38, TKFTLSLDVPTNIMNLLFNIAKAKNLRAQAAANAHLCAQI-NH2]”, the EC50 is about 214 nM and the “Log DR [M]” value is over 2.95.

Take `CC[C@H](C)[C@H](NC(=O)[C@H](CCC(N)=O)NC(=O)[C@H](C)NC(=O)[C@H](CCSC)NC(=O)[C@H](CC(C)C)NC(=O)[C@H](Cc1c[nH]cn1)NC(=O)[C@H](C)NC(=O)[C@H](CC(N)=O)NC(=O)[C@H](C)NC(=O)[C@H](C)NC(=O)[C@H](C)NC(=O)[C@H](CCC(N)=O)NC(=O)[C@H](C)NC(=O)[C@H](CCCNC(=N)N)NC(=O)[C@H](CSC1CC(=O)N(CC)C1=O)NC(=O)[C@H](CC(N)=O)NC(=O)[C@H](CCCCN)NC(=O)[C@H](C)NC(=O)[C@H](CCCCN)NC(=O)[C@H](C)NC(=O)[C@@H](NC(=O)[C@H](CC(N)=O)NC(=O)[C@H](Cc1ccccc1)NC(=O)[C@H](CC(C)C)NC(=O)[C@H](CC(C)C)NC(=O)[C@H](CC(N)=O)NC(=O)[C@H](CCSC)NC(=O)[C@@H](NC(=O)[C@H](CC(N)=O)NC(=O)[C@@H](NC(=O)[C@@H]1CCCN1C(=O)[C@@H](NC(=O)[C@H](CC(=O)O)NC(=O)[C@H](CC(C)C)NC(=O)[C@H](CO)NC(=O)[C@H](CC(C)C)NC(=O)[C@@H](NC(=O)[C@H](Cc1ccccc1)NC(=O)[C@H](CCCCN)NC(=O)[C@@H](N)[C@@H](C)O)[C@@H](C)O)C(C)C)[C@@H](C)O)[C@@H](C)CC)[C@@H](C)CC)C(N)=O` (some centres unmarked) [SEQ ID NO: 48, TKFTLSLDVPTNIMNLLFNIAKAKNC(-NES)RAQA AANAH LMAQI-NH2] (H-TKFTLSLDVPTNIMNLLFNIAKAKNC(Succinimide(1-Et,3-yl))RAQAAANAHLMAQI-NH2; N-terminus assumed): the EC50 is 0.363 nM and the “Log DR [M]” value stood at 0.03.

On to “TKFTLSLDVPTNIMNLLFNICKAKNLRAQAAANAHLMAQI-NH2 [SEQ ID NO: 22, TKFTLSLDVPTNIMNLLFNICKAKNLRAQAAANAHLMAQI-NH2]”, for which the EC50 is 0.676 nM and the “Log DR [M]” value is 0.52.

As for “TKFTLSLDVPTNIMNLLFNIAKACNLRAQAAANAHLMAQI-NH2 [SEQ ID NO: 25, TKFTLSLDVPTNIMNLLFNIAKACNLRAQAAANAHLMAQI-NH2]”, the EC50 is 0.676 nM and the “Log DR [M]” value came to 0.35.
